Source: publication PMC8284453 (Antimicrobial Agents and Chemotherapy, 2021)
In brackets after ≈: the same amount, converted by molar mass. Read-outs that look alike come from different tables or passages of the source.

Legend:
[1] = test system: K. pneumoniae 752286 (OXA-48); test: Broth microdilution MIC; format: cell-based; conditions: Klebsiella pneumoniae
[2] = test system: Enterobacterales expressing class D oxacillinases (OXA-48/48-like); test: organism not typed; format: cell-based, E. coli, K. pneumoniae
[3] = test system: K. pneumoniae ATCC BAA-1705 (KPC-2); test: 24-h time-kill assay; format: cell-based; conditions: Klebsiella pneumoniae, ATCCBAA1705; lowest concentration with ≥3-log10 CFU/ml reduction at 24 h; read-out: MBC
Method: (§1) In vitro antibacterial time-kill assay. […] Time-kill assays were performed in 14 ml glass tubes or deep-well storage plates with a bacterial inoculum in CAMHB of 5 × 10^5 CFU/ml. The tubes/plates were incubated at 37°C with shaking at 200 rpm, and aliquots were drawn at six time points (0, 2, 4, 6, 8, and 24 h) to conduct 0.5 log10 dilutions in CAMHB in 96-well plates that were incubated overnight at 37°C and used to ascertain viable bacterial counts. The lowest quantifiable amount by this method is 2 log10 CFU/ml.

[4] = test system: E. cloacae ECL01 (TEM-72, ACT-1, P99AmpC); test: 24-h time-kill assay; format: cell-based; conditions: Enterobacter cloacae; lowest concentration with ≥3-log10 CFU/ml reduction at 24 h; read-out: MBC
Method: as §1

[5] = test system: E. coli ESBL4 (CTX-M-15); test: 24-h time-kill assay; format: cell-based
Method: as §1

[6] = test system: K. pneumoniae 752286 (OXA-48); test: 24-h time-kill assay; format: cell-based; conditions: Klebsiella pneumoniae, 24 h
Method: as §1

[7] = test system: Enterobacterales expressing class C cephalosporinases
[8] = 25 isolates, BLI fixed at 4 μg/ml, AMC 2:1

Nc1nc(/C(=C/CC(=O)O)C(=O)N[C@@H]2C(=O)N3C(C(=O)O)=CCS[C@H]23)cs1 [CTB, ceftibuten]
MIC [1]: 128 µg/mL (≈ 312 µM) | MIC50 [2, 8]: 16 µg/mL (≈ 39 µM) | MIC90 [2, 8]: ≥ 64 µg/mL | MIC ([2]; E. coli 664507 (OXA-48)): 16 µg/mL (≈ 39 µM) | MIC ([2]; E. coli 664516 (OXA-48)): 32 µg/mL (≈ 78 µM) | MIC ([2]; E. coli 664520 (OXA-48)): 16 µg/mL (≈ 39 µM) | MIC ([2]; E. coli 664522 (OXA-48)): 32 µg/mL (≈ 78 µM) | MIC ([2]; E. coli 664523 (OXA-48)): 16 µg/mL (≈ 39 µM) | MIC ([2]; E. coli 664524 (OXA-48)): 16 µg/mL (≈ 39 µM) | MIC ([2]; E. coli 664525 (OXA-48)): 32 µg/mL (≈ 78 µM) | MIC ([2]; E. coli 664526 (OXA-48)): 16 µg/mL (≈ 39 µM) | MIC ([2]; E. coli 664528 (OXA-48)): 16 µg/mL (≈ 39 µM) | MIC ([2]; E. coli 787112 (OXA-48)): ≥ 64 µg/mL | MIC ([2]; E. coli SI-422 (OXA-48)): 0.25 µg/mL (≈ 0.609 µM) | MIC ([2]; E. coli VER (OXA-48)): 0.06 µg/mL (≈ 0.146 µM) | MIC ([2]; K. pneumoniae 6299 (OXA-163)): 8 µg/mL (≈ 19.5 µM) | MIC ([2]; K. pneumoniae 515746 (OXA-48), first line): 16 µg/mL (≈ 39 µM) | MIC ([2]; K. pneumoniae 515746 (OXA-48), second line): 16 µg/mL (≈ 39 µM) | MIC ([2]; K. pneumoniae 664438 (OXA-48)): 16 µg/mL (≈ 39 µM) | MIC ([2]; K. pneumoniae 664439 (OXA-48)): 16 µg/mL (≈ 39 µM) | MIC ([2]; K. pneumoniae 664509 (OXA-48)): ≥ 64 µg/mL | MIC ([2]; K. pneumoniae 664518 (OXA-48)): 32 µg/mL (≈ 78 µM) | MIC ([2]; K. pneumoniae 722870 (OXA-48)): 8 µg/mL (≈ 19.5 µM) | MIC ([2]; K. pneumoniae BAH (OXA-204)): ≥ 64 µg/mL | MIC ([2]; K. pneumoniae DEL (OXA-232)): ≥ 64 µg/mL | MIC ([2]; K. pneumoniae DOV (OXA-48)): 8 µg/mL (≈ 19.5 µM) | MIC ([2]; K. pneumoniae KIRK (OXA-162)): 8 µg/mL (≈ 19.5 µM) | MIC ([2]; K. pneumoniae SI-C17 (OXA-48)): ≥ 64 µg/mL | MBC [3]: 16 µg/mL (≈ 39 µM) | MBC [4]: > 32 µg/mL | MBC ([5]; Escherichia coli, lowest concentration with ≥3-log10 CFU/ml reduction at 24 h, read-out: MBC): > 32 µg/mL | outcome of 24-h time-kill assay ([5]; Fig. 3a, CTB 2 μg/ml with BLI at 4 μg/ml, CTB alone 8 μg/ml, amoxicillin 8/clavulanic acid 4 μg/ml, penems 2 μg/ml): initial killing, but the strains grew to control levels by 24 h | MBC [6]: ≥ 128 µg/mL | MIC90 [7, 8]: ≥ 64 µg/mL | MIC ([7]; C. freundii 134390 (AmpC, TEM-1)): 4 µg/mL (≈ 9.75 µM) | MIC ([7]; E. aerogenes 110099 (AmpC, SHV-12)): 32 µg/mL (≈ 78 µM) | MIC ([7]; E. aerogenes 111707 (AmpC, TEM-1)): 2 µg/mL (≈ 4.87 µM) | MIC ([7]; E. aerogenes 111902 (AmpC, TEM-1)): ≥ 64 µg/mL | MIC ([7]; E. coli 128 (AmpC, SHV-12, TEM-1, Toho-2)): 2 µg/mL (≈ 4.87 µM) | MIC ([7]; E. coli 3102 (AmpC, CTX-M-15, TEM-1)): 32 µg/mL (≈ 78 µM) | MIC ([7]; E. coli CH1 (AmpC, CTX-M-15, SHV-1, SHV-5, TEM-1)): ≥ 64 µg/mL | MIC ([7]; E. coli EC469 (AmpC, SHV-12, TEM-1)): 2 µg/mL (≈ 4.87 µM) | MIC ([7]; E. coli J53 (AmpC, SHV-5, TEM-1)): 8 µg/mL (≈ 19.5 µM) | MIC ([7]; E. coli SI-P026TC (CMY-2, TEM-1)): ≥ 64 µg/mL | MIC ([7]; E. coli SI-PO26 (AmpC, CMY-2, TEM-1)): ≥ 64 µg/mL | MIC ([7]; K. pneumoniae 129032 (MOX-2, SHV-12, TEM-1)): 16 µg/mL (≈ 39 µM) | MIC ([7]; K. pneumoniae 178279 (AmpC, SHV-12, TEM-1)): 8 µg/mL (≈ 19.5 µM) | MIC ([7]; K. pneumoniae 212027 (AmpC, FOX-5, TEM-1)): 16 µg/mL (≈ 39 µM) | MIC ([7]; K. pneumoniae 217917 (CMY-2, TEM-1)): 8 µg/mL (≈ 19.5 µM) | MIC ([7]; K. pneumoniae 301313 (AmpC, SHV-12, TEM-1)): ≥ 64 µg/mL | MIC ([7]; K. pneumoniae 398845 (CMY-2, SHV-12, TEM-1)): 16 µg/mL (≈ 39 µM) | MIC ([7]; K. pneumoniae SI-F100 (CMY-2, SHV-5, TEM-1)): 2 µg/mL (≈ 4.87 µM) | MIC ([7]; P. mirabilis SI-F014 (AmpC, TEM-72)): ≥ 64 µg/mL | MIC ([7]; S. marcescens 132253 (AmpC, CTX-M-3, OXA-1, SHV-12, TEM-1)): ≥ 64 µg/mL | MIC ([7]; S. marcescens 134434 (AmpC, SHV-12, TEM-1)): 32 µg/mL (≈ 78 µM) | MIC ([7]; S. marcescens 142397 (AmpC, SHV-7, TEM-1)): ≥ 64 µg/mL
